Values of other authors in patent publication EP4759315A1, “DRUG PREPARED FROM ORGANIC GERMANIUM COMPOUND AND GLUCOSAMINE COMPOUND, AND USE THEREOF” (Eion International Ltd., priority 2023, dated 2025).

Key:
[1] = in vivo

In the case of `O=C(O)C[CH2][Ge](=[O])[O][Ge](=[O])[CH2]CC(=O)O` [Ge-132, bis(carboxyethyl)germanium sesquioxide], the “No-Observable-Adverse-Effect Level (NOAEL)” value [1] is listed as 2000 mg/kg body weight/day, the “pH of the solution” value (at the concentration of 1.28 g/100 ml in water) is listed as 3.06-3.12 and the solubility in water (water) is listed as 1.28 g/100 ml.
